Data on three molecules can be found in patent publication US20030166554A1, “Treatment of CNS disorders using D-amino acid oxidase and D-aspartate oxidase antagonists” (GENSET, S.A., priority 2001, published 2003).

As usually defined, the Km is the substrate concentration at which the rate is half of its maximum.

The test system of series [1] is PCP-induced hyperactivity in male Swiss mice. Briefly: Locomotor hyperactivity induced by PCP in mice (open field). Format: in vivo. To be noted: 30 minute open field, mean +/- s.e.m. As to the method: Randomized groups of 10 male Swiss mice (9 weeks old, Elevage Janvier; Le Genest-St-Isle, France) were used for each study.
Mice were group-housed and maintained in an incubator with controlled temperature (21-22° C.) and a reversed light-dark cycle (12 h/12 h) with food and water available ad libitum. All experiments were carried out in accordance with institutional guidelines.
It is well known to those skilled in the art that phencyclidine (PCP) intoxication in mice closely mimics schizophrenia and therefore is commonly used as an animal model of schizophrenia. In the following experiments, the ability of the DAO inhibitor, sodium benzoate, to reverse PCP-induced hyperactivity was monitored. PCP and the test compound, sodium benzoate, were diluted in a 0.9% sterile aqueous solution of sodium chloride (1 mg/ml). Sodium benzoate was administered by intraperitoneal injection (IP) 2 hours before administration of PCP (0.3 mg/kg by subcutaneous (SC) injection 15 minutes before start of the test). The animals were placed into an open field, which was divided into nine equal squares. A video track (Viewpoint system) was placed over a Plexiglas open field (OF; length 52 cm×52 cm; height 40 cm) and animal activity was recorded. Over a 30 minute time period, two parameters were recorded: (a) number of crossed squares and (b) total distance walked.
A global analysis of the data was performed using a one way ANOVA followed by a Dunnett's test if possible. The level of significance was set at p<0.05. Results were expressed was mean +/− standard error of the mean (s.e.m.).

The target in another series is T1, Pig kidney DAAO (Sus scrofa, UniProt P00371).
T1 construct: The crude preparation of pig kidney DAAO was purchased from Sigma; purchased Sigma; host or cells: pig kidney tissue; purified further in house (Sephadex G-50, DEAE-Sepharose, Ultragel AcA44)
Briefly: DAAO kinetics in the presence of g34872 protein (D-serine substrate). Format: biochemical. The conditions noted are these: 20° C. As to the method:
(§1) The assay mixture was typically composed of D-serine (Aldrich) 200 mM, FAD (Sigma) at 0.1 mM, sodium phosphate buffer pH8 at 75 mM, HR-peroxidase (Sigma) 1U/ml. The mixture was air-saturated just before use. o-Dianizidine (Sigma) was added in the mixture. In the typical assay 5 μl of the enzyme (DAAO and mixes) was added to 25 μl of the assay mixture, the incubation was stopped with 50 μl of 20% H2SO4. The activity was observed as absorbance of the peroxidase-oxidized o-Dianizidine at 540 nm. The reactions containing high protein concentrations were centrifuged 15 min at 14000 rpm before absorbance measuring.
Pig kidney DAAO was mixed with g34872 in PBS and incubated 30 min at 20° C. DAAO concentration was 200 ng/μl and g34872 concentration was 2 μg/μl in the protein mixture. The control mixture (without g34872) was composed of 200 ng/μl DAAO and 2 μg/μl BSA. The enzymatic activity of DAAO was measured at 20° C. with D-serine, the substrate concentration used were from 0 to 100 mM, other corposants of the mixture and pH were standard.

Another series addresses T2, hDAAO (Homo sapiens, UniProt P14920).
T2 construct: made in house; host or cells: Saccharomyces cerevisiae (YPH499 and FY1679-18B strains), pESC-Leu vector, galactose induction; crude extract
Kind of series: DAAO activity of combined yeast extracts expressing hDAAO and g34872. It counts as biochemical. To be noted: D-serine, 37° C., FIG. 1. How it is done: as §1
Yeast cells were transformed with the plasmids constructed in pESC-Leu expression vector. One plasmid can express hDAAO, second one—C-terminal tagged g34872, third—is the vector without insertion (control). After the induction of the expression (2% galactose in the medium) these cells were incubated for 24 h, than the extracts were maid and combined as follow: different volumes of DAAO extract were mixed with either g34872-cHis6 or with the vector extracts. The same volumes of DAAO extracts were also mixed with BSA (external control). After 30min of the pre-incubation the combined extracts were used for DAAO activity measuring. All yeast extracts and BSA solution had the same total protein concentration. DAAO activity was determined with D-serine at 37° C.

In a further series the test system is HR-peroxidase. Kind of series: Peroxidase control assay (hydrogen peroxide substrate). The conditions noted are these: conditions identical to DAAO assay. Format: biochemical. From the text:
The assay of peroxidase was done in the conditions identical to those for DAAO assay; hydrogen peroxide (Gibco) was used as a substrate, and no effect of g34872 on HRP activity was confirmed.

The mark [2] stands for this setting: PCP alone 0.3 mg/kg SC 15 minutes before test.
The mark [3] stands for this setting: sodium benzoate 400 mg/kg IP 2 hours before PCP 0.3 mg/kg SC.

T1 sequence (P00371 whole entry): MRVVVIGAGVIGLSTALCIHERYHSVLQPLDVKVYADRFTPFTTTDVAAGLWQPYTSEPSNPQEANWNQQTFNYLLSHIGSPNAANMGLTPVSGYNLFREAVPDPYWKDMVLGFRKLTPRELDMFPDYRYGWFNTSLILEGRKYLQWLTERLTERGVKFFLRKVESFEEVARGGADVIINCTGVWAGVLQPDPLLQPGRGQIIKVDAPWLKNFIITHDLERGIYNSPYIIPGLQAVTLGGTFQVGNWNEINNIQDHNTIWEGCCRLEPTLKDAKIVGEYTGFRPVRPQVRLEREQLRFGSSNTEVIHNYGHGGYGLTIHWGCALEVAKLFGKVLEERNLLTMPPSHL
T2 sequence (P14920 whole entry): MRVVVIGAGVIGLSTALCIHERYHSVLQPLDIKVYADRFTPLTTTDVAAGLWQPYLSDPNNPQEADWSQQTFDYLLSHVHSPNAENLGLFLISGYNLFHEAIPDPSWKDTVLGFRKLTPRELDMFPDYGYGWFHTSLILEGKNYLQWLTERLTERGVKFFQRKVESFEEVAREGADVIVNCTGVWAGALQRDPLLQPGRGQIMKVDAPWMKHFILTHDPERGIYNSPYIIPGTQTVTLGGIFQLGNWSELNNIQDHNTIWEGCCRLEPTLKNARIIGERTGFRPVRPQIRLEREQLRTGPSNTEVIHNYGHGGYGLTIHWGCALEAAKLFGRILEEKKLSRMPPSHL

On to `c1ccc(C2(N3CCCCC3)CCCCC2)cc1` [PCP, phencyclidine], for which, in series [1] (setting [2]), the “number of crossed squares” value is recorded as 977.0+/−64.6 and the total distance walked is 18781.8+/−1447.5.
On to `O=C([O-])c1ccccc1.[Na+]` [sodium benzoate], for which, in series [1] (sodium benzoate 125 mg/kg IP 2 hours before PCP 0.3 mg/kg SC), the total distance walked is reported as 14807.7+/−756.8. Further, in series [1] (setting [3]), the “number of crossed squares” value was 740.1+/−114.1 and the total distance walked is 13521.0+/−1705.6.

B1: g34872: purified recombinant g34872 protein, binding partner and activator of DAO (protein)
chain: HEDGYLEMAQRHLQRSLCPWVSYLPQPYAELEEVSSHVGKVFMARNYEFLAYEASKDRRQPLERMWTCNYNQQKDQSCNHKEITSTKAE
Turning to B1, the Km with Pig kidney DAAO (g34872&DAAO mix: DAAO 200 ng/μl, g34872 2 μg/μl, D-serine 0 to 100 mM) stood at 4 mM. For the same molecule, in the series with Pig kidney DAAO (pig kidney DAAO, D-serine), the “effect of g34872 on DAAO (mode of action)” value was “Allosteric Activator”. For the same molecule, the “effect on DAO activity” value in the series with hDAAO is listed as “activates DAO”. For the same molecule, the “effect on HRP activity” value in the series with HR-peroxidase is listed as “no effect”.
